In patent US8957062B2, “Substituted cyclopropyl compounds, compositions containing such compounds and methods of treatment” (Merck Sharp & Dohme Corp., priority 2011, dated 2015):

Target: T1, human GPR119 (Homo sapiens, UniProt Q8TDV5)
T1 sequence (Q8TDV5 1-308 limits assumed): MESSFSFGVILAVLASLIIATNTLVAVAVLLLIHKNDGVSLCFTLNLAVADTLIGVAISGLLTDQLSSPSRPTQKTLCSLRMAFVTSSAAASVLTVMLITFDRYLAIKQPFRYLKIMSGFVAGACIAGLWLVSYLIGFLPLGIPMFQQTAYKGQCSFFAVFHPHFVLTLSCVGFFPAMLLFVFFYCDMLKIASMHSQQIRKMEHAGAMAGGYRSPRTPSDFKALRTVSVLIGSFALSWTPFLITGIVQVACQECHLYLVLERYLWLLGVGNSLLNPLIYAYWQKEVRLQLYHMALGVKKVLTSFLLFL
Experiment: Measurement of GPR119 signaling (cAMP assay) in cells stably transfected with human GPR119
Format: cell-based
Conditions: table column; cAMP stimulation, human GPR119; read-out: GPR119 Human EC50

EC50 [nM]	SMILES
6.7	CC(C)c1noc(N2CCC([C@H]3C[C@H]3CCOc3ccc(CC(=O)N(C)C)cc3)CC2)n1 [Example 137]
6	CC(C)c1noc(N2CCC([C@H]3C[C@H]3CCOc3ccc(CC(=O)N4CC(O)C4)c(F)c3)CC2)n1 [Example 139]
3.6	CC(C)c1noc(N2CCC([C@H]3C[C@H]3CCOc3ccc(CC(=O)N4CC(C)(O)C4)c(F)c3)CC2)n1 [Example 140]
0.93	COC1CN(C(=O)Cc2ccc(OCC[C@@H]3C[C@@H]3C3CCN(c4nc(C(C)C)no4)CC3)cc2F)C1 [Example 141]
0.84	CC(C)c1noc(N2CCC([C@H]3C[C@H]3CCOc3ccc(CC(=O)N4CCOCC4)c(F)c3)CC2)n1 [Example 142]
0.94	CC(C)c1noc(N2CCC([C@H]3C[C@H]3CCOc3ccc(CC(=O)N(C)C)c(F)c3)CC2)n1 [Example 143]
1.8	CCN(CC)C(=O)Cc1ccc(OCC[C@@H]2C[C@@H]2C2CCN(c3nc(C(C)C)no3)CC2)cc1F [Example 144]
1.7	CC(C)c1noc(N2CCC([C@H]3C[C@H]3CCOc3ccc(CC(=O)N4CCCCC4)c(F)c3)CC2)n1 [Example 145]
1.2	CC(C)c1noc(N2CCC([C@H]3C[C@H]3CCOc3ccc(CC(=O)N4CCCC4)c(F)c3)CC2)n1 [Example 146]
0.55	CC(C)c1noc(N2CCC([C@H]3C[C@H]3CCOc3ccc(CC(=O)N4CC(F)(F)C4)c(F)c3)CC2)n1 [Example 147]
1.7	CC(C)c1noc(N2CCC([C@H]3C[C@H]3CCOc3ccc(CC(=O)N4CCC(F)(F)CC4)c(F)c3)CC2)n1 [Example 148]
8.2	CC(C)c1noc(N2CCC([C@H]3C[C@H]3CCOc3ccc(CC(=O)N4CC(C(C)(C)O)C4)c(F)c3)CC2)n1 [Example 149]
2.1	CC(C)c1noc(N2CCC([C@H]3C[C@H]3CCOc3ccc(CC(=O)NC4CC4)c(F)c3)CC2)n1 [Example 150]
3.2	CC(C)c1noc(N2CCC([C@H]3C[C@H]3CCOc3ccc(CC(=O)NC4CCC4)c(F)c3)CC2)n1 [Example 151]
6.3	CC(C)c1noc(N2CCC([C@H]3C[C@H]3CCOc3ccc(CC(=O)NC4CC4(F)F)c(F)c3)CC2)n1 (stereo partly drawn) [Example 152]
4.3	CC(C)c1noc(N2CCC([C@H]3C[C@H]3CCOc3ccc(CC(=O)NC4(C(F)(F)F)CC4)c(F)c3)CC2)n1 [Example 153]
5	CC(C)c1noc(N2CCC([C@H]3C[C@H]3CCOc3ccc(CC(=O)N(C)C4CCCC4)c(F)c3)CC2)n1 [Example 154]
7.5	CC(C)c1noc(N2CCC([C@H]3C[C@H]3CCOc3ccc(CC(=O)NCC4CC4)c(F)c3)CC2)n1 [Example 155]
5.4	CC(C)c1noc(N2CCC([C@H]3C[C@H]3CCOc3ccc(CC(=O)NC4CCCC4)c(F)c3)CC2)n1 [Example 156]
3.9	CC(C)c1noc(N2CCC([C@H]3C[C@H]3CCOc3ccc(CC(=O)NCC(F)(F)F)c(F)c3)CC2)n1 [Example 157]
1.1	CC(C)c1noc(N2CCC([C@H]3C[C@H]3CCOc3ccc(CC(=O)N4C[C@H](F)[C@@H](F)C4)c(F)c3)CC2)n1 [Example 158]
0.93	CC(C)c1noc(N2CCC([C@H]3C[C@H]3CCOc3ccc(CC(=O)N4Cc5cccnc5C4)c(F)c3)CC2)n1 [Example 159]
4.8	CC(C)c1noc(N2CCC([C@H]3C[C@H]3CCOc3ccc(CC(=O)N(C)C4CCOCC4)c(F)c3)CC2)n1 [Example 160]
1.1	CC(C)c1noc(N2CCC([C@H]3C[C@H]3CCOc3ccc(CC(=O)N(C)C4CCOC4)c(F)c3)CC2)n1 (stereo partly drawn) [Example 161]
2	CC(C)c1noc(N2CCC([C@H]3C[C@H]3CCOc3ccc(CC(=O)N(C)C4CCS(=O)(=O)C4)c(F)c3)CC2)n1 (stereo partly drawn) [Example 162]
2.3	Cc1nc(CN(C)C(=O)Cc2ccc(OCC[C@@H]3C[C@@H]3C3CCN(c4nc(C(C)C)no4)CC3)cc2F)cs1 [Example 163]

SMILES	EC50 [nM]
CC(C)c1noc(N2CCC([C@H]3C[C@H]3CCOc3ccc(CC(=O)N4CCC4)c(F)c3)CC2)n1 [Example 138]	2
